One test deals with T1, human σ1 receptor (Homo sapiens, UniProt Q99720).
T1 construct: expressed in transfected cells; host or cells: HEK-293
Nature of the test: Human σ1 receptor radioligand assay. The settings on record: transfected HEK-293 membranes, 5 nM [3H](+)-pentazocine, 37° C. 120 minutes; + may also stand for 1-50% inhibition at 1 or 10 μM; read-out: Binding σ-1 Ki. As for the experimental part:
Human σ1 Receptor Radioligand Assay
Transfected HEK-293 membranes (7 μg) were incubated with 5 nM of [^3H](+)-pentazocine in assay buffer containing Tris-HCl 50 mM at pH 8. NBS (non-specific binding) was measured by adding 10 μM haloperidol. The binding of the test compound was measured at either one concentration (% inhibition at 1 or 10 μM) or five different concentrations to determine affinity values (Ki). Plates were incubated at 37° C. for 120 minutes. After the incubation period, the reaction mix was then transferred to MultiScreen HTS, FC plates (Millipore), filtered and plates were washed 3 times with ice-cold 10 mM Tris-HCL (pH7.4). Filters were dried and counted at approximately 40% efficiency in a MicroBeta scintillation counter (Perkin-Elmer) using EcoScint liquid scintillation cocktail.

A further test addresses T2, human σ2/TMEM97 receptor (Homo sapiens, UniProt Q5BJF2).
T2 construct: expressed in transfected cells; host or cells: HEK-293
Nature of the test: Binding assay to human σ2/TMEM97 receptor. As to conditions: transfected HEK-293 membranes, 10 nM [3H]-DTG, 25° C. 120 minutes; + may also stand for 1-50% inhibition at 1 or 10 μM; read-out: Binding σ-2 Ki. As for the experimental part: Binding Assay to Human σ2/TMEM97 Receptor
Transfected HEK-293 membranes (15 μg) were incubated with 10 nM [^3H]-1,3-Di-o-tolylguanidine (DTG) in assay buffer containing Tris-HCl 50 mM at pH 8.0. NSB (non-specific binding) was measured by adding 10 μM haloperidol. The binding of the test compound was measured at either one concentration (% inhibition at 1 or 10 μM) or five different concentrations to determine affinity values (Ki). Plates were incubated at 25° C. for 120 minutes. After the incubation period, the reaction mix was transferred to MultiScreen HTS, FC plates (Millipore), filtered and washed 3 times with ice-cold 10 mM Tris-HCL (pH 8.0). Filters were dried and counted at approximately 40% efficiency in a MicroBeta scintillation counter (Perkin-Elmer) using EcoScint liquid scintillation cocktail.

pKi: −log10 of the molar value.

T1 sequence (Q99720 whole entry): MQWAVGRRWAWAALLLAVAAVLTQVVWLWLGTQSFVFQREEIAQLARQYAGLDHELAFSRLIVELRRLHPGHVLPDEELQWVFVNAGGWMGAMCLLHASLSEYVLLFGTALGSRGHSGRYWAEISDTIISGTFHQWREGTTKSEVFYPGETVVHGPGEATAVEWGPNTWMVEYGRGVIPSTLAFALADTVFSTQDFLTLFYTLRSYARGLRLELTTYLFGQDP
T2 sequence (Q5BJF2 whole entry): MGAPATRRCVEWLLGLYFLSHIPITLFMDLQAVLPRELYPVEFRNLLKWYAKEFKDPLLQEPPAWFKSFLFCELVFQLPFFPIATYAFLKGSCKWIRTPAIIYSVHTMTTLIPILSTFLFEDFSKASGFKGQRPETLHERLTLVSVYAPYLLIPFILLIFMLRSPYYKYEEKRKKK

Broadly, the pKi is the Ki on a negative log10 scale, so that one unit is a factor of ten. On to `O=S(=O)(N[C@H]1CCN(Cc2ccccc2)C1)c1ccc(N2CCOCC2)nc1` [Example 1, (S)—N-(1-Benzylpyrrolidin-3-yl)-6-morpholinopyridine-3-sulfonamide], for which the pKi is more than 7.00 on human σ1 receptor and less than 6.00 on human σ2/TMEM97 receptor.
The like results for `O=S(=O)(NC1CCN(Cc2ccccc2)CC1)c1ccc(N2CCOCC2)nc1` [Example 2, N-(1-Benzylpiperidin-4-yl)-6-morpholinopyridine-3-sulfonamide] were, in that order, more than 7.00 and less than 6.00.
As to `O=S(=O)(N[C@@H]1CCN(Cc2ccccc2)C1)c1ccc(N2CCOCC2)nc1` [Example 3, (R)-N-(1-Benzylpyrrolidin-3-yl)-6-morpholinopyridine-3-sulfonamide], the pKi is more than 7.00 on human σ1 receptor and less than 6.00 on human σ2/TMEM97 receptor.
Turning to `CN([C@H]1CCN(Cc2ccccc2)C1)S(=O)(=O)c1ccc(N2CCOCC2)nc1` [Example 4, (S)-N-(1-Benzylpyrrolidin-3-yl)-N-methyl-6-morpholinopyridine-3-sulfonamide], the pKi at human σ1 receptor was more than 7.00; on human σ2/TMEM97 receptor it was less than 6.00.
For the molecule `CN([C@@H]1CCN(Cc2ccccc2)C1)S(=O)(=O)c1ccc(N2CCOCC2)nc1` [Example 5, (R)-N-(1-Benzylpyrrolidin-3-yl)-N-methyl-6-morpholinopyridine-3-sulfonamide], the results for the pKi on human σ1 receptor and on human σ2/TMEM97 receptor were more than 7.00 and less than 6.00, respectively.
With `C[C@H]1CN(Cc2ccccc2)C[C@@H]1NS(=O)(=O)c1ccc(N2CCOCC2)nc1` [Example 6, N-((3R,4S)-1-Benzyl-4-methylpyrrolidin-3-yl)-6-morpholinopyridine-3-sulfonamide], the negative logarithm of the Ki (pKi) at human σ1 receptor was more than 7.00; on human σ2/TMEM97 receptor, 6.00 to 6.30.
With `O=S(=O)(NC1CCN(Cc2ccc(F)cc2)CC1)c1ccc(N2CCOCC2)nc1` [Example 7, N-(1-(4-Fluorobenzyl)piperidin-4-yl)-6-morpholinopyridine-3-sulfonamide], the figures for the pKi at human σ1 receptor and on human σ2/TMEM97 receptor were more than 7.00 and less than 6.00, respectively.
`O=S(=O)(NC1CCN(Cc2cccc(F)c2)CC1)c1ccc(N2CCOCC2)nc1` [Example 8, N-(1-(3-Fluorobenzyl)piperidin-4-yl)-6-morpholinopyridine-3-sulfonamide]: the pKi on human σ1 receptor is more than 7.00; at human σ2/TMEM97 receptor, less than 6.00.
The like results for `N#Cc1cccc(CN2CCC(NS(=O)(=O)c3ccc(N4CCOCC4)nc3)CC2)c1` [Example 9, N-(1-(3-Cyanobenzyl)piperidin-4-yl)-6-morpholinopyridine-3-sulfonamide] were, in that order, 6.00 to 6.30 and less than 6.00.
Take `O=S(=O)(NC1CCN(Cc2ccc(Cl)cc2)CC1)c1ccc(N2CCOCC2)nc1` [Example 10, N-(1-(4-Chlorobenzyl)piperidin-4-yl)-6-morpholinopyridine-3-sulfonamide]: the pKi at human σ1 receptor is more than 7.00; on human σ2/TMEM97 receptor it was less than 6.00.
Turning to `N#Cc1ccc(CN2CCC(NS(=O)(=O)c3ccc(N4CCOCC4)nc3)CC2)cc1` [Example 11, N-(1-(4-Cyanobenzyl)piperidin-4-yl)-6-morpholinopyridine-3-sulfonamide], the pKi at human σ1 receptor was more than 7.00; on human σ2/TMEM97 receptor it was less than 6.00.
With `O=S(=O)(c1ccc(N2CCOCC2)nc1)N1CCC2(CCN(Cc3ccccc3)CC2)CC1` [Example 12, 4-(5-((9-Benzyl-3,9-diazaspiro[5.5]undecan-3-yl)sulfonyl)pyridin-2-yl)morpholine], the pKi at human σ1 receptor is less than 6.00; at human σ2/TMEM97 receptor, more than 7.00.
As for `O=S(=O)(c1ccc(N2CCOCC2)nc1)N1CCC2(CCN(Cc3ccccc3)C2)CC1` [Example 13, 4-(5-((2-Benzyl-2,8-diazaspiro[4.5]decan-8-yl)sulfonyl)pyridin-2-yl)morpholine], the pKi at human σ1 receptor was less than 6.00; at human σ2/TMEM97 receptor, 6.30 to 7.00.
Take `C[C@@H]1CN(Cc2ccccc2)C[C@H]1NS(=O)(=O)c1ccc(N2CCOCC2)nc1` [Example 14, N-((3S,4R)-1-Benzyl-4-methylpyrrolidin-3-yl)-6-morpholinopyridine-3-sulfonamide]: the negative logarithm of the Ki (pKi) at human σ1 receptor was more than 7.00; on human σ2/TMEM97 receptor it was less than 6.00.
For the molecule `CN(CCc1ccccc1)C1CCN(S(=O)(=O)c2ccc(N3CCOCC3)nc2)CC1` [Example 15, N-Methyl-1-((6-morpholinopyridin-3-yl)sulfonyl)-N-phenethylpiperidin-4-amine], the pKi at human σ1 receptor was less than 6.00; on human σ2/TMEM97 receptor, 6.30 to 7.00.
The like results for `CN(Cc1ccccc1)C1CCN(S(=O)(=O)c2ccc(N3CCOCC3)nc2)CC1` [Example 16, N-Benzyl-N-methyl-1-((6-morpholinopyridin-3-yl)sulfonyl)piperidin-4-amine] were, in that order, less than 6.00 and 6.30 to 7.00.
On to `CN(Cc1ccccc1)[C@H]1CCN(S(=O)(=O)c2ccc(N3CCOCC3)nc2)C1` [Example 17, (S)-N-Benzyl-N-methyl-1-((6-morpholinopyridin-3-yl)sulfonyl)pyrrolidin-3-amine], for which the pKi on human σ1 receptor is more than 7.00; on human σ2/TMEM97 receptor, less than 6.00.
Turning to `CN(Cc1ccccc1)[C@H]1CC[C@H](NS(=O)(=O)c2ccc(N3CCOCC3)nc2)CC1` [Example 18, N-((1r,4r)-4-(Benzyl(methyl)amino)cyclohexyl)-6-morpholinopyridine-3-sulfonamide], the pKi at human σ1 receptor is less than 6.00; on human σ2/TMEM97 receptor, more than 7.00.
Take `CN(Cc1ccccc1)[C@H]1CC[C@@H](NS(=O)(=O)c2ccc(N3CCOCC3)nc2)CC1` [Example 19, N-((1s,4s)-4-(Benzyl(methyl)amino)cyclohexyl)-6-morpholinopyridine-3-sulfonamide]: the pKi is less than 6.00 on human σ1 receptor and more than 7.00 on human σ2/TMEM97 receptor.
For the molecule `C[C@@H]1CN(c2ccc(S(=O)(=O)N[C@H]3CCN(Cc4ccccc4)C3)cn2)C[C@H](C)O1` [Example 20, N—((S)-1-Benzylpyrrolidin-3-yl)-6-((2R,6S)-2,6-dimethylmorpholino)pyridine-3-sulfonamide], the results for the pKi at human σ1 receptor and at human σ2/TMEM97 receptor were more than 7.00 and less than 6.00, respectively.
As to `CN(C)c1ccc(S(=O)(=O)N[C@H]2CCN(Cc3ccccc3)C2)cn1` [Example 21, (S)-N-(1-Benzylpyrrolidin-3-yl)-6-(dimethylamino) pyridine-3-sulfonamide], the values for the pKi at human σ1 receptor and on human σ2/TMEM97 receptor were more than 7.00 and less than 6.00, respectively.
As to `CN(C)c1ccc(S(=O)(=O)N[C@@H]2CCN(Cc3ccccc3)C2)cn1` [Example 22, (R)-N-(1-Benzylpyrrolidin-3-yl)-6-(dimethylamino) pyridine-3-sulfonamide], the pKi at human σ1 receptor was more than 7.00; at human σ2/TMEM97 receptor it was less than 6.00.
The like results for `O=S(=O)(N[C@@H]1CCN(Cc2ccccc2)C1)c1ccc(N2C[C@@H]3C[C@H]2CO3)nc1` [Example 23, N-((R)-1-Benzylpyrrolidin-3-yl)-6-((1S,4S)-2-oxa-5-azabicyclo[2.2.1]heptan-5-yl)pyridine-3-sulfonamide] were, in that order, more than 7.00 and less than 6.00.
`O=S(=O)(N[C@@H]1CCN(Cc2ccccc2)C1)c1cnc(N2CCOCC2)c(F)c1` [Example 24, (R)-N-(1-Benzylpyrrolidin-3-yl)-5-fluoro-6-morpholinopyridine-3-sulfonamide]: the figures for the pKi at human σ1 receptor and at human σ2/TMEM97 receptor were more than 7.00 and 6.00 to 6.30, respectively.
Consider `O=S(=O)(N[C@H]1CCN(Cc2ccccc2)C1)c1cnc(N2CCOCC2)c(F)c1` [Example 25, (S)-N-(1-Benzylpyrrolidin-3-yl)-5-fluoro-6-morpholinopyridine-3-sulfonamide], for which the figures for the pKi at human σ1 receptor and at human σ2/TMEM97 receptor were more than 7.00 and less than 6.00, respectively.
For `COC1CCN(c2ccc(S(=O)(=O)N[C@@H]3CCN(Cc4ccccc4)C3)cn2)CC1` [Example 26, (R)-N-(1-Benzylpyrrolidin-3-yl)-6-(4-methoxypiperidin-1-yl)pyridine-3-sulfonamide], the pKi at human σ1 receptor is 6.00 to 6.30; at human σ2/TMEM97 receptor, less than 6.00.
As to `O=S(=O)(N[C@@H]1CCN(Cc2ccccc2)C1)c1ccc(N2[C@@H]3CC[C@H]2COC3)nc1` [Example 27, N-((R)-1-Benzylpyrrolidin-3-yl)-6-((1R,5S)-3-oxa-8-azabicyclo [3.2.1]octan-8-yl)pyridine-3-sulfonamide], the pKi at human σ2/TMEM97 receptor was less than 6.00.
Consider `CN(Cc1ccc(F)cc1)[C@H]1CC[C@H](NS(=O)(=O)c2ccc(N3CCOCC3)nc2)CC1` [Example 28, N-((1r,4r)-4-((4-Fluorobenzyl)(methyl)amino)cyclohexyl)-6-morpholinopyridine-3-sulfonamide], for which the pKi was less than 6.00 at human σ1 receptor and more than 7.00 at human σ2/TMEM97 receptor.
The like results for `CC(C)(C)CCN1CCC2(CC1)CCN(S(=O)(=O)c1ccc(N3CCOCC3)nc1)CC2` [Example 29, 4-(5-((9-(3,3-Dimethylbutyl)-3,9-diazaspiro[5.5]undecan-3-yl)sulfonyl)pyridin-2-yl)morpholine] were, in that order, 6.30 to 7.00 and more than 7.00.
As for `CN(C)c1ccc(S(=O)(=O)N[C@H]2CC[C@H](N(C)Cc3ccccc3)CC2)cn1` [Example 30, N-((1r,4r)-4-(Benzyl (methyl)amino)cyclohexyl)-6-(dimethylamino) pyridine-3-sulfonamide], the figures for the pKi on human σ1 receptor and at human σ2/TMEM97 receptor were 6.00 to 6.30 and 6.30 to 7.00, respectively.

(Values after patent US20240254115A1 (ACONDICIONAMIENTO TARRASENSE, priority 2021, published 2024).)
